Laboratory results taken from US20250270645A1, “ALGORITHM AND AN IN VITRO METHOD BASED ON RNA EDITING TO SELECT PARTICULAR EFFECT INDUCED BY ACTIVE COMPOUNDS” (ALCEDIAG, priority 2016, published 2025).
Entries after “also recorded” stand apart in the source; their conditions may differ.

Legend:
[1] = tested on: HTR2C RNA editing; assay: Dose-dependent alterations of HTR2C RNA editing profile in SH-SY5Y cells; type: cell-based, human; details: compared to vehicle-treated cells
Procedure: Prior to the experiment, the human neuroblastoma cell line (SH-SY5Y) was treated with an increasing dose of interferon and RNA editing of 5HT2cR was measured using NGS based approach.
The RNA editing profiles represent the respective relative proportion of HTR2C RNA editing as compared to vehicle-treated SH-SY5Y cells.

[2] = annotation of the molecule (low/no risk versus high/at risk); cited from earlier work
[3] = tested on: HTR2C RNA editing; assay: Time course of HTR2C RNA editing in SH-SY5Y cells with risk score by the most preferred algorithm (prob(Algorithm)); type: cell-based, human; details: for prob(Algorithm) risk score / prediction: SH-SY5Y, HTR2C; for time course of HTR2C RNA editing profile: SH-SY5Y cells, 12-48 h; for risk score over time points: most preferred algorithm, each time point
[4] = tested on: ADAR1a mRNA expression; assay: Relative ADAR1a mRNA expression by quantitative PCR in treated SH-SY5Y cells; type: cell-based, human; details: 48 hours
Procedure: After cDNA synthesis samples were stored at 4° C. prior analysis of ADAR1a mRNA expression by qPCR on a LC480 system (Roche). qPCR data were quantified using the standard curve method. mRNA expression of ADAR1a is known to be induced by Interferon alpha treatment (IFNα). […] In this way, all samples of the same batch could be analysed in a single qPCR run. […] This response could be seen in all biological replicates (n=5). […] The coefficient of variation of 9.31% clearly illustrates the reproducibility of the biological phenomenon.

SMILES: CNC1(c2ccccc2Cl)CCCCC1=O (centres unmarked) [Ketamine]
- dose dependence of 5-HT2cR/HTR2C RNA editing profile [1]: Dose-dependent alterations of RNA editing profiles
- risk class to induce psychiatric adverse side effect in a patient [2]: low risk

SMILES: O=C1CCc2ccc(OCCCCN3CCN(c4cccc(Cl)c4Cl)CC3)cc2N1 [Aripiprazole]
- prob(Algorithm) risk score ([3]; 12 h treatment): 0.528
- prediction ([3]; 24 h treatment): Pos
- prob(Algorithm) risk score ([3]; 24 h treatment): 0.632
- prediction ([3]; 48 h treatment): Pos
- prob(Algorithm) risk score ([3]; 48 h treatment): 0.760
- time course of HTR2C RNA editing profile [3]: time-dependent alterations of the RNA editing profile
- risk score over time points [3]: identified positively at risk starting from 24 hours and beyond
- risk class to induce psychiatric adverse side effect in a patient [2]: at risk

SMILES: C[C@H](NC(=O)C(C)(C)Oc1ccc(C(F)(F)F)cn1)[C@@H](Cc1ccc(Cl)cc1)c1cccc(C#N)c1 [Taranabant]
- risk class to induce psychiatric adverse side effect in a patient [2]: at risk

SMILES: CCN(CC)CC(=O)Nc1c(C)cccc1C [Lidocaine]
- risk class to induce psychiatric adverse side effect in a patient [2]: low or no risk

SMILES: NC(=O)c1ncn([C@@H]2O[C@H](CO)[C@@H](O)[C@H]2O)n1 [Ribavirin]
- risk class to induce psychiatric adverse side effect in a patient [2]: low risk

SMILES: CNCCC(Oc1ccc(C(F)(F)F)cc1)c1ccccc1 (centres unmarked) [Fluoxetine]
- risk class to induce psychiatric adverse side effect in a patient [2]: high risk

SMILES: COC(=O)[C@H]1[C@H]2C[C@@H]3c4[nH]c5cc(OC)ccc5c4CCN3C[C@H]2C[C@@H](OC(=O)c2cc(OC)c(OC)c(OC)c2)[C@@H]1OC [Reserpine]
- effect on ADAR1a mRNA expression [4]: consistently increase ADAR1a mRNA levels
- prediction ([3]; 12 h treatment): Pos
- prob(Algorithm) risk score ([3]; 12 h treatment): 0.878
- prediction ([3]; 24 h treatment): Pos
- prob(Algorithm) risk score ([3]; 24 h treatment): 0.986
- prediction ([3]; 48 h treatment): Pos
- prob(Algorithm) risk score ([3]; 48 h treatment): 0.976
- time course of HTR2C RNA editing profile [3]: time-dependent alterations of the RNA editing profile
- risk score over time points [3]: risk scores were high at all time points
- risk class to induce psychiatric adverse side effect in a patient [2]: high risk

SMILES: CC1=C(/C=C/C(C)=C/C=C/C(C)=C\C(=O)O)C(C)(C)CCC1 [Isotretinoin]
- risk class to induce psychiatric adverse side effect in a patient [2]: at risk

SMILES: CN[C@H]1CC[C@@H](c2ccc(Cl)c(Cl)c2)c2ccccc21 [Sertraline]
- dose dependence of 5-HT2cR/HTR2C RNA editing profile [1]: Dose-dependent alterations of RNA editing profiles
- risk class to induce psychiatric adverse side effect in a patient [2]: at risk

SMILES: [Li] [Lithium]
- risk class to induce psychiatric adverse side effect in a patient [2]: low risk

SMILES: COC(=O)[C@H]1[C@H]2C[C@@H]3c4[nH]c5cc(OC)ccc5c4CCN3C[C@H]2C[C@@H](OC(=O)c2cc(OC)c(OC)c(OC)c2)[C@@H]1OC [molecule 165]
- effect on ADAR1a mRNA expression [4]: induced ADAR1a mRNA expression; also recorded: strong increase of ADAR1a mRNA expression levels
